In brackets after ≈: the same amount, converted by molar mass.
Assay: Cytotoxicity against human ovarian cancer cells
Assay type: functional, cell-based
Details: Cancer cell lines

Cn1c(=N)c2nc[nH]c2n(C)c1=O
IC50: 2.1 µg/mL (≈ 11.7 µM)
